Patent US20220281846A1, “COMPOUNDS AND COMPOSITIONS FOR THE TREATMENT OF RESPIRATORY DISEASES” (THE UNIVERSITY OF MELBOURNE, priority 2018, published 2022)
“And” between values parts separate entries of the source, which are not always exact repeats. Equal values may be shown once. Marks after values point to notes of the source that are not given here.

Legend:
[1] = In vitro metabolic stability, human liver microsomes; format: in vitro ADME
Protocol: Human Microsomal Stability of Compounds of the Invention
In Vitro Metabolic Stability
Incubation: The metabolic stability assay was performed by incubating each test compound in human liver microsomes at 37° C. and a protein concentration of 0.4 mg/mL. The metabolic reaction was initiated by the addition of an NADPH-regenerating system and quenched at various time points over a 60 minute incubation period by the addition of acetonitrile containing diazepam as internal standard. Control samples (containing no NADPH) were included (and quenched at 2, 30 and 60 minutes) to monitor for potential degradation in the absence of cofactor. The human liver microsomes used in this experiment were supplied by XenoTech, lot #1410230. Microsomal incubations were performed at a substrate concentration of 1 μM. Data analysis: Species scaling factors from Ring et al. (2011) JPharmSci, 100:4090-4110 were used to convert the in vitro CLint (μL/min/mg) to an in vivo CLint(mL/min/kg). Hepatic blood clearance and the corresponding hepatic extraction ratio (EH) were calculated using the well stirred model of hepatic extraction in each species, according to the “in vitro T1/2” approach described in Obach (1999) DrugMetab. Dispos. 27:1350-1359. The EH was then used to classify compounds as low(<0.3), intermediate (0.3-0.7), high (0.7-0.95) or very high (>0.95) extraction compounds. Predicted in vivo clearance values have not been corrected for microsomal or plasma protein binding. Species scaling calculations are based on two assumptions: 1) NADPH-dependent oxidative metabolism predominates over other metabolic routes (i.e. direct conjugative metabolism, reduction, hydrolysis, etc.), and; 2) rates of metabolism and enzyme activities in vitro are truly reflective of those that exist in vivo. If significant non-NADPH-mediated degradation is observed in microsome control samples, then assumption (1) is invalid and predicted clearance parameters are therefore not reported.

[2] = Mouse pharmacokinetics, IV and oral administration; format: in vivo; conditions: male C57BL/6 mice
Protocol: PF670462 (2HCl.0.4 mol. eq. isopropanol) and ZH3-138 (unionised) were administered to male C57BL/6 mice by IV (3 mg/kg) or orally (10 mg/kg). IV administration was achieved by bolus injection into the tail vein of mice using 1 mL syringe with 25G×1″ needle at a volume of 3 mL/kg. Oral administration was achieved by gavage needle at a volume of 3 mL/kg.
Intravenous (IV) and oral formulations were prepared using the same method. On the day of dosing, each of the solid compound was dissolved in DMSO to which an aqueous solution containing 10% Captisol was added. Hydrochloric acid (1 M) was used to modify pH for the formulation of ZH3-138 with the purpose of solubilising the compound (see Section B for the final pH of each formulation). The formulations of each compound were thoroughly vortexed, producing colourless solutions for all three compounds.
The systemic exposure of PF670462 and ZH3-138 was studied in non-fasted male C57BL/6 mice weighing 19.8-26.8 g. Mice had access to food and water ad libitum throughout the pre- and post-dose sampling period.
Compounds were dosed to mice by bolus injection into the lateral tail vein (3 mL/kg) for IV administration and by gavage (3 mL/kg) for oral administration. Following IV and oral administration, blood samples were collected up to 24 h (n=3 mice per time point) with a maximum of three samples from each mouse. Samples were collected via submandibular bleed (approximately 120 μL; conscious sampling). No urine samples were collected as mice were housed in bedded cages.
Blood was collected into polypropylene Eppendorf tubes containing heparin as anticoagulant and stabilisation cocktail (containing Complete® (a protease inhibitor cocktail) and potassium fluoride) to minimise the potential for ex vivo compound degradation in blood/plasma samples.
Once collected, blood samples were centrifuged immediately, supernatant plasma was removed, and stored at −80° C. until analysis by LC-MS.
Plasma samples were quantified against calibration standards prepared by spiking blank mouse plasma (50 μL) with solution standards (10 μL) obtained by diluting a stock solution of test compound (1 mg/mL in DMSO) with 50% acetonitrile in water. Diazepam (10 μL of 5 μg/mL in 50% acetonitrile/water) was added to all plasma calibration standards and samples as an internal standard (IS). The extraction of the test compound and IS from plasma was conducted using protein precipitation with acetonitrile. Protein precipitation was carried out by the addition of acetonitrile followed by vortexing and centrifugation (10,000 rpm) for 3 minutes to obtain supernatant for analysis using the LC-MS conditions described in Table 7.

## Nc1nccc(-c2c(-c3ccc(F)cc3)ncn2C2CCCCC2)n1 [PF670462, reference compound]
[1]; human liver microsomes
  Predicted EH (hepatic extraction ratio): 0.88
[1]; human liver microsomes, 1 μM
  CLint, in vitro: 192 μL/min/mg protein
[1]; human liver microsomes, 1 μM, 0.4 mg/mL protein, 37° C.
  T1/2: 9 min
[1]; scaled from human liver microsomes
  Predicted CLint, in vivo: 158 mL/min/kg
[1]; scaled from human liver microsomes, well stirred model
  Predicted CLblood: 18 mL/min/kg
[2]
  apparent blood clearance: moderate
  apparent blood volume of distribution: moderate
[2]; 24 h sampling period
  time post-dose for which plasma concentration was measurable (above LLQ): up to 4 h
[2]; IV 2.42 mg/kg, 0.017 h
  Plasma Concentration, Mean: 15500 nM
[2]; IV 2.42 mg/kg, 0.017 h, 2.42 mg/kg
  Plasma Concentration, Individual: 18.4 µM and 10.9 µM and 17.3 µM
[2]; IV 2.42 mg/kg, 0.033 h
  Plasma Concentration, Mean: 8140 nM
[2]; IV 2.42 mg/kg, 0.033 h, 2.42 mg/kg
  Plasma Concentration, Individual: 8.83 µM and 8.03 µM and 7.57 µM
[2]; IV 2.42 mg/kg, 0.083 h
  Plasma Concentration, Mean: 6090 nM
[2]; IV 2.42 mg/kg, 0.083 h, 2.42 mg/kg
  Plasma Concentration, Individual: 5.58 µM and 5.99 µM and 6.70 µM
[2]; IV 2.42 mg/kg, 0.25 h
  Plasma Concentration, Mean: 2480 nM
[2]; IV 2.42 mg/kg, 0.25 h, 2.42 mg/kg
  Plasma Concentration, Individual: 2.38 µM and 2.32 µM and 2.75 µM
[2]; IV 2.42 mg/kg, 0.5 h
  Plasma Concentration, Mean: 851 nM
[2]; IV 2.42 mg/kg, 0.5 h, 2.42 mg/kg
  Plasma Concentration, Individual: 0.900 µM and 0.566 µM and 1.09 µM
[2]; IV 2.42 mg/kg, 1.0 h
  Plasma Concentration, Mean: 190 nM
[2]; IV 2.42 mg/kg, 1.0 h, 2.42 mg/kg
  Plasma Concentration, Individual: 0.193 µM and 0.165 µM and 0.212 µM
[2]; IV 2.42 mg/kg, 2.0 h
  Plasma Concentration, Mean: 253 nM
[2]; IV 2.42 mg/kg, 2.0 h, 2.42 mg/kg
  Plasma Concentration, Individual: 0.0263 µM and 0.0207 µM and 0.0290 µM
[2]; IV 2.42 mg/kg, 4.0 h
  Plasma Concentration, Mean: 2.09 nM
[2]; IV 2.42 mg/kg, 4.0 h, values only marginally below the LLQ, 2.42 mg/kg
  Plasma Concentration, Individual: 0.00222 ^a μM and 0.00134 ^a μM and 0.0027 ^a μM
[2]; oral 10.1 mg/kg, 0.25 h
  Plasma Concentration, Mean: 1250 nM
[2]; oral 10.1 mg/kg, 0.25 h, 10.1 mg/kg
  Plasma Concentration, Individual: 1.45 µM and 0.873 µM and 1.44 µM
[2]; oral 10.1 mg/kg, 0.50 h
  Plasma Concentration, Mean: 941 nM
[2]; oral 10.1 mg/kg, 0.50 h, 10.1 mg/kg
  Plasma Concentration, Individual: 1.95 µM and 0.508 µM and 0.366 µM
[2]; oral 10.1 mg/kg, 1.0 h
  Plasma Concentration, Mean: 292 nM
[2]; oral 10.1 mg/kg, 1.0 h, 10.1 mg/kg
  Plasma Concentration, Individual: 0.260 µM and 0.340 µM and 0.277 µM
[2]; oral 10.1 mg/kg, 2.0 h
  Plasma Concentration, Mean: 103 nM
[2]; oral 10.1 mg/kg, 2.0 h, 10.1 mg/kg
  Plasma Concentration, Individual: 0.140 µM and 0.0641 µM and 0.104 µM
[2]; oral 10.1 mg/kg, 4.0 h
  Plasma Concentration, Mean: 16.5 nM
[2]; oral 10.1 mg/kg, 4.0 h, 10.1 mg/kg
  Plasma Concentration, Individual: 0.0318 µM and 0.0106 µM and 0.00703 µM
[2]; plasma
  apparent half-life: approximately 0.5 h
